In PubChem BioAssay AID248 (DTP/NCI, 2004):
Values joined by “and” are separate entries in the source; they are usually repeats but may differ in a detail not shown here. Identical values can stand only once. Toxic doses and inconclusive results are not listed. Rule as the data show it: active = T/C of 150% or more; inactive = T/C below 125%.

Test system: L1210 leukemia ip in BDF1 mice, survival T/C
Assay: NCI In Vivo Anticancer Drug Screen. Data for tumor model L1210 Leukemia (intraperitoneal) in B6D2F1 (BDF1) mice
Settings: endpoint: mean survival time, higher = longer survival
How it was run: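 Transplanted-tumor mice were given test agent; controls received vehicle only. Survival readings from the two groups were divided (treated over control).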

[1] = dose: 50.0 mg/kg/injection, schedule: Q01DX001 (ip), vehicle: carboxymethylcellulose (CMC)
[2] = dose: 100.0 mg/kg/injection, schedule: Q01DX001 (ip), vehicle: carboxymethylcellulose (CMC)
[3] = dose: 200.0 mg/kg/injection, schedule: Q01DX001 (ip), vehicle: carboxymethylcellulose (CMC)
[4] = dose: 400.0 mg/kg/injection, schedule: Q01DX001 (ip), vehicle: carboxymethylcellulose (CMC)
[5] = dose: 100.0 mg/kg/injection, schedule: Q01DX001 (ip), vehicle: saline
[6] = dose: 200.0 mg/kg/injection, schedule: Q01DX001 (ip), vehicle: saline
[7] = dose: 400.0 mg/kg/injection, schedule: Q01DX001 (ip), vehicle: saline

Measured: T/C

CCCCNc1ccc(S(=O)(=O)c2ccc(NCCCC)c([N+](=O)[O-])c2)cc1[N+](=O)[O-]
inactive: dose: 1.56 mg/kg/injection, schedule: Q01DX009 (ip), vehicle: DMSO 89 % of control | dose: 3.12 mg/kg/injection, schedule: Q01DX009 (ip), vehicle: DMSO 101 % of control | dose: 6.25 mg/kg/injection, schedule: Q01DX009 (ip), vehicle: DMSO 101 % of control | dose: 25.0 mg/kg/injection, schedule: Q01DX009 (ip), vehicle: DMSO 102 % of control | dose: 100.0 mg/kg/injection, schedule: Q01DX005 (ip), vehicle: DMSO 105 % of control | dose: 100.0 mg/kg/injection, schedule: Q01DX009 (ip), vehicle: DMSO 100 % of control | dose: 100.0 mg/kg/injection, schedule: Q04DX002 (ip), vehicle: DMSO 103 % of control | dose: 200.0 mg/kg/injection, schedule: Q01DX005 (ip), vehicle: DMSO 90 % of control | dose: 200.0 mg/kg/injection, schedule: Q04DX002 (ip), vehicle: DMSO 111 % of control | dose: 400.0 mg/kg/injection, schedule: Q01DX005 (ip), vehicle: DMSO 93 % of control | dose: 400.0 mg/kg/injection, schedule: Q04DX002 (ip), vehicle: DMSO 103 % of control

O=C(O)C1C(C(=O)O)C(c2ccccc2)C1c1ccccc1 (centres undefined)
inactive: [1] 90 % of control | [2] 97 % of control | [3] 103 % of control | [4] 90 % of control

CCN1/C(=C/C(C)=C/c2sc3ccccc3[n+]2CC)Sc2ccccc21
inactive: dose: 1.25 mg/kg/injection, schedule: Q01DX001 (ip), vehicle: other 111 % of control | dose: 2.5 mg/kg/injection, schedule: Q01DX001 (ip), vehicle: other 97 % of control | dose: 5.0 mg/kg/injection, schedule: Q01DX001 (ip), vehicle: other 103 % of control | dose: 25.0 micrograms/kg/injection, schedule: Q01DX001 (ip), vehicle: saline 98 % of control | dose: 25.0 micrograms/kg/injection, schedule: Q01DX009 (ip), vehicle: Klucel (hydroxypropylcellulose) (HPC) 100 % of control | dose: 50.0 micrograms/kg/injection, schedule: Q01DX001 (ip), vehicle: saline 93 % of control | dose: 50.0 micrograms/kg/injection, schedule: Q01DX009 (ip), vehicle: Klucel (hydroxypropylcellulose) (HPC) 101 % of control | dose: 100.0 micrograms/kg/injection, schedule: Q01DX001 (ip), vehicle: saline 104 % of control | dose: 100.0 micrograms/kg/injection, schedule: Q01DX009 (ip), vehicle: Klucel (hydroxypropylcellulose) (HPC) 108 % of control | dose: 200.0 micrograms/kg/injection, schedule: Q01DX001 (ip), vehicle: saline 96 % of control | dose: 200.0 micrograms/kg/injection, schedule: Q01DX009 (ip), vehicle: Klucel (hydroxypropylcellulose) (HPC) 104 % of control | dose: 200.0 micrograms/kg/injection, schedule: Q01DX015 (ip), vehicle: saline 105 % of control | dose: 400.0 micrograms/kg/injection, schedule: Q01DX009 (ip), vehicle: Klucel (hydroxypropylcellulose) (HPC) 97 % of control

O=C1Cc2ccccc2C(=O)N1
inactive: dose: 25.0 mg/kg/injection, schedule: Q01DX Z (ip), vehicle: carboxymethylcellulose (CMC) 91 % of control | dose: 40.0 mg/kg/injection, schedule: Q01DX Z (ip), vehicle: carboxymethylcellulose (CMC) 104 % of control | dose: 60.0 mg/kg/injection, schedule: Q01DX Z (ip), vehicle: carboxymethylcellulose (CMC) 112 % of control | dose: 90.0 mg/kg/injection, schedule: Q01DX Z (ip), vehicle: carboxymethylcellulose (CMC) 100 % of control | dose: 100.0 mg/kg/injection, schedule: Q04DX003 (ip), vehicle: saline sonified 100 % of control | dose: 200.0 mg/kg/injection, schedule: Q04DX003 (ip), vehicle: saline sonified 99 % of control | dose: 400.0 mg/kg/injection, schedule: Q04DX003 (ip), vehicle: saline sonified 100 % of control

O=C(O)c1cc2c(cc1[N+](=O)[O-])OCO2
inactive: dose: 100.0 mg/kg/injection, schedule: Q04DX002 (ip), vehicle: saline with Tween-80 104 % of control | dose: 200.0 mg/kg/injection, schedule: Q04DX002 (ip), vehicle: saline with Tween-80 92 % of control | dose: 400.0 mg/kg/injection, schedule: Q04DX002 (ip), vehicle: saline with Tween-80 90 % of control

CCC1=CCN2CCC34c5cc(C6(C(=O)OC)CC7CC(CC)CN(CCc8c6[nH]c6ccccc86)C7)c(OC)cc5N(C)C3C(O)(C(=O)OC)C(OC(C)=O)C1C24 (centres undefined)
inactive: dose: 0.8 mg/kg/injection, schedule: Q01DX001 (ip), vehicle: saline 100 % of control | dose: 1.6 mg/kg/injection, schedule: Q01DX001 (ip), vehicle: saline 100 % of control | dose: 3.2 mg/kg/injection, schedule: Q01DX001 (ip), vehicle: saline 101 % of control | dose: 6.4 mg/kg/injection, schedule: Q01DX001 (ip), vehicle: saline 97 % of control

c1ccc(N2CCNCC2)nc1
inactive: dose: 5.0 mg/kg/injection, schedule: Q01DX009 (ip), vehicle: acetone 100 % of control | dose: 10.0 mg/kg/injection, schedule: Q01DX001 (ip), vehicle: acetone 96 % of control | dose: 10.0 mg/kg/injection, schedule: Q01DX009 (ip), vehicle: acetone 97 % of control | dose: 10.0 mg/kg/injection, schedule: Q04DX003 (ip), vehicle: saline 109 % of control | dose: 20.0 mg/kg/injection, schedule: Q01DX001 (ip), vehicle: acetone 95 % of control | dose: 20.0 mg/kg/injection, schedule: Q01DX009 (ip), vehicle: acetone 95 % of control | dose: 20.0 mg/kg/injection, schedule: Q04DX003 (ip), vehicle: saline 98 % of control | dose: 40.0 mg/kg/injection, schedule: Q01DX001 (ip), vehicle: acetone 106 % of control | dose: 40.0 mg/kg/injection, schedule: Q04DX003 (ip), vehicle: saline 101 % of control

COc1ccccc1C(=O)NN
inactive: dose: 6.25 mg/kg/injection, schedule: Q04DX003 (ip), vehicle: saline 98 % of control | dose: 12.5 mg/kg/injection, schedule: Q04DX003 (ip), vehicle: saline 98 % of control | dose: 25.0 mg/kg/injection, schedule: Q01DX009 (ip), vehicle: saline 106 % of control | dose: 25.0 mg/kg/injection, schedule: Q04DX003 (ip), vehicle: saline 103 % of control | dose: 50.0 mg/kg/injection, schedule: Q01DX009 (ip), vehicle: saline 110 % of control

Cc1cn(C2OC(CO)C(O)C2O)c(=O)[nH]c1=O (centres undefined)
inactive: dose: 3.75 mg/kg/injection, schedule: Q01DX Z (ip), vehicle: saline 86 % of control | dose: 6.25 mg/kg/injection, schedule: Q03HX024 (ip), vehicle: saline 102 % of control | dose: 7.5 mg/kg/injection, schedule: Q01DX Z (ip), vehicle: saline 88 % of control | dose: 12.5 mg/kg/injection, schedule: Q03HX024 (ip), vehicle: saline 94 % of control | dose: 25.0 mg/kg/injection, schedule: Q03HX024 (ip), vehicle: saline 107 % of control | dose: 30.0 mg/kg/injection, schedule: Q01DX Z (ip), vehicle: saline 86 % of control | [1] 116 % of control | dose: 50.0 mg/kg/injection, schedule: Q03HX024 (ip), vehicle: saline 102 % of control | dose: 60.0 mg/kg/injection, schedule: Q01DX Z (ip), vehicle: saline 92 % of control | [2] 97 % of control | [5] 87 % of control | [3] 106 % of control | [6] 92 % of control | [4] 95 % of control | [7] 90 % of control

Nn1nnc2ccccc21
inactive: [5] 95 % of control | [6] 97 % of control | [7] 97 % of control

COC(=O)/C=C/c1c[nH]c2nccnc12
inactive: dose: 100.0 mg/kg/injection, schedule: Q01DX009 (ip), vehicle: water 98 % of control | dose: 100.0 mg/kg/injection, schedule: Q04DX003 (ip), vehicle: water 101 % of control | dose: 200.0 mg/kg/injection, schedule: Q01DX009 (ip), vehicle: water 95 % of control | dose: 200.0 mg/kg/injection, schedule: Q04DX003 (ip), vehicle: water 98 % of control | dose: 400.0 mg/kg/injection, schedule: Q01DX009 (ip), vehicle: water 97 % of control | dose: 400.0 mg/kg/injection, schedule: Q04DX003 (ip), vehicle: water 102 % of control

CCN1C(=O)/C(=C\C=C2\SCCN2CI)OC1=S
inactive: dose: 177.6 mg/kg/injection, schedule: Q01DX001 (ip), vehicle: other 98 % of control and 89 % of control | dose: 266.8 mg/kg/injection, schedule: Q01DX001 (ip), vehicle: other 96 % of control | dose: 400.0 mg/kg/injection, schedule: Q01DX001 (ip), vehicle: other 96 % of control and 89 % of control | dose: 600.0 mg/kg/injection, schedule: Q01DX001 (ip), vehicle: other 103 % of control and 87 % of control
